pIC50: −log10 of the molar value.
Columns and labels:
[1] = Inhibition of DPPH radical scavenging activity; format: functional
Mus musculus [2] = organism: Mus musculus; assay: Effect on lipid-peroxidation level per protein in Swiss Albino mouse liver; format: functional, organism-based
Mus musculus [3] = organism: Mus musculus; assay: Stimulation of SOD level per protein in Swiss Albino mouse liver; format: functional
Mus musculus [4] = organism: Mus musculus; assay: Stimulation of GSH level per protein in Swiss Albino mouse liver; format: functional
Mus musculus [5] = assay: Hepatoprotecting activity in Swiss Albino mouse liver assessed as ALT level at 3 mg/kg, po for 20 days; format: functional
Mus musculus [6] = organism: Mus musculus; assay: Stimulation of GST level in Swiss Albino mouse liver; format: functional
Mus musculus [7] = organism: Mus musculus; assay: Stimulation of CAT level per protein in Swiss Albino mouse liver; format: functional
Mus musculus [8] = assay: Hepatoprotecting activity in Swiss Albino mouse liver assessed as urea level at 3 mg/kg, po for 20 days
Mus musculus [9] = assay: Hepatoprotecting activity in Swiss Albino mouse liver assessed as […] level at 3 mg/kg, po for 20 days; format: functional

COc1cc(/C=C2/SC(=O)NC2=O)ccc1OCC=C(C)C
pIC50 [1]: 4.75

COc1cc(/C=C2/SC(=O)NC2=O)ccc1OC/C=C(/C)CCC=C(C)C
pIC50 [1]: 4.76

COc1cc(/C=C2/SC(=O)NC2=O)cc(OC)c1OCC=C(C)C
pIC50 [1]: 5.39
Activity (Mus musculus [2]): 0.158 nmol/mg
Activity (Mus musculus [3]): 67.45 U/mg
Activity (Mus musculus [4]): 238.22 nmol/mg
Activity (Mus musculus [5]): 7.3 IU/L
Activity (Mus musculus [6]): 140.54 nmol/mg/min
Activity (Mus musculus [7]): 23.97 U/mg
Urea level (Mus musculus [8]): 16.53 mg/dL
Activity (Mus musculus [9]): 37.99 IU/L

CC(C)=CCC/C(C)=C/COc1ccccc1/C=C1/SC(=O)NC1=O
pIC50 [1]: 4.92

CC(C)=CCOc1ccccc1/C=C1/SC(=O)NC1=O
pIC50 [1]: 4.36

CC(C)=CCC/C(C)=C\COc1ccc(/C=C2/SC(=O)NC2=O)cc1
pIC50 [1]: 5.01
Activity (Mus musculus [2]): 0.148 nmol/mg
Activity (Mus musculus [3]): 70.15 U/mg
Activity (Mus musculus [4]): 245.32 nmol/mg
Activity (Mus musculus [5]): 6.32 IU/L
Activity (Mus musculus [6]): 160.33 nmol/mg/min
Activity (Mus musculus [7]): 22.32 U/mg
Urea level (Mus musculus [8]): 14.69 mg/dL
Activity (Mus musculus [9]): 32.88 IU/L

Cc1c(C)c2c(c(C)c1O)CC[C@@](C)(CCC[C@H](C)CCC[C@H](C)CCCC(C)C)O2 [ALPHA-TOCOPHEROL]
pIC50 [1]: 5.64

COc1cc(/C=C2/SC(=O)NC2=O)cc(OC)c1OC/C=C(/C)CCC=C(C)C
pIC50 [1]: 4.49

O=C1NC(=O)/C(=C\c2ccccc2O)S1
pIC50 [1]: 4.63

CC(C)=CCOc1ccc(/C=C2/SC(=O)NC2=O)cc1
pIC50 [1]: < 4.30

O=C1NC(=O)/C(=C\c2ccc(O)cc2)S1
pIC50 [1]: 4.92

COc1cc(/C=C2/SC(=O)NC2=O)cc(OC)c1O
pIC50 [1]: 5.55

COc1cc(/C=C2/SC(=O)NC2=O)ccc1O
pIC50 [1]: 5.60
Activity (Mus musculus [2]): 0.143 nmol/mg
Activity (Mus musculus [3]): 65.45 U/mg
Activity (Mus musculus [4]): 184.09 nmol/mg
Activity (Mus musculus [5]): 4.8 IU/L
Activity (Mus musculus [6]): 220.8 nmol/mg/min
Activity (Mus musculus [7]): 16.85 U/mg
Urea level (Mus musculus [8]): 13.83 mg/dL
Activity (Mus musculus [9]): 38.1 IU/L

Reference: ChEMBL document CHEMBL1144596, “Synthesis of O-prenylated and O-geranylated derivatives of 5-benzylidene2,4-thiazolidinediones and evaluation of their free radical scavenging activity as well as effect on some phase II antioxidant/detoxifying enzymes” (Bioorg Med Chem Lett, 2007)
